Test system: production of (S)-3-methyl-3-sulfanylhexan-1-ol
Assay: Screening of potentially malodor-inhibiting compounds: micro-organisms incubated with the Cys-Gly precursor, VSC quantified by GC-AED (procedure of Example 6)
Type: cell-based
Details: for inhibition of production of (S)-3-methyl-3-sulfanylhexan-1-ol: compounds added at 2 μmole
Experimental: Bacteria isolates were grown aerobically in the appropriate liquid media at 37° C. until OD600=1.0. Cells were harvested by centrifugation at 3000 g, 10 min, washed once with sterile 0.1M phosphate buffer (pH 6.0) and resuspended in fresh buffer. The concentration of individual strains incubated with the sweat precursor was between 1.10^+8 and 1.10^+10 cfu/mL. These freshly prepared bacteria (5 mL), were incubated with 0.1 mL of precursors (5 mg in 10 mL water), (or the sweat fraction, in Example 1 above), at 37° C. pH 6 in a close bottle. After the incubation time 1, 4 and 18 hours, 1 mL of ethyl acetate containing octanethiol and octadecane at 0.02 mg/mL was added and the fermentation broth was centrifuged at 16′000 g. The organic phase was directly injected on a GCSPB1 column coupled to MS and on a GCDMePeBetacdx chiral column coupled to AED detection. These experiments were repeated three times, two blanks were done with the micro-organism without the precursor and one with the precursor in the growing buffer only. No formation of sulfur compound was detected in blanks. The response factor for 1 μL injected of a solution 0.01 mg/mL of octanethiol was calculated in comparison of 1 μL injected of a racemic solution of 0.01 mg/mL of 3-methyl-3-sulphanylhexane-1-ol. The addition of both peaks areas (R/S) gave 280 (+/−5) and octanethiol 303 (+/−3) peaks surface over for injections so we used as an approximation a response factor of 1. Correlation factor for 1 μL injected on both column, were above 0.998 in the range of 1 to 10 ppm of (R/S)-3-methyl-3-sulfanylhexane-1-ol.
Micro-organisms suspended in fresh buffer (Example 5, detailed fermentation protocol) were split in two samples X and Y (negative control) of 5 mL.
[drawing 12] (obtained in Example 9) was added to sample X at a concentration of 2 μmol/L.
The samples comprising suspended micro-organisms and the compound to be screened were incubated at 37° C. for 30 min. […]
After the incubation times of 1, 4 and 18 hours, the increase of malodorous substance (compound 1 in FIG. 2) is briefly determined by sniffing of a trained person. […]
For the internal standard, the response factor for 1 μL injected of a solution 0.01 mg/mL of octanethiol was calculated in comparison of 1 μL injected of a racemic solution of 0.01 mg/mL of 3-methyl-3-sulphanylhexane-1-ol. […]
Stoichiometrically, 0.2 μmol of precursor produces 0.025 mg of VSC in 1 ml ethylacetate, if all precursor is metabolized. If less than […] of VSC is measured in sample X by the AED system, the screened compound, β-Cl-ala-gly, has the ability to reduce the development of malodor. […]

Row | Compound | inhibition of production of (S)-3-methyl-3-sulfanylhexan-1-ol (procedure of Example 6) [%] | effect on formation of metabolites like compound II upon screening (compound (VII) with Z being NH) | production of (S)-3-methyl-3-sulfanylhexan-1-ol compared to the control (compound added at 2 μmole, procedure of Example 6)
1 | C#CC[C@H](N)C(=O)NCC(=O)O [Compound VI, N-[(2S)-2-amino-4-pentynoyl]glycine] | 75 | – | –
2 | Nc1cccc(C(=O)NCC(=O)O)c1 [Compound VII, N-[3-amino-benzoyl]glycine] | – | clear and confirmed increase of metabolites | increased production
3 | N[C@@H]1C=C(C(=O)NCC(=O)O)SC1 [IIIa, N-{[(4R)-4-amino-4,5-dihydro-2-thienyl]carbonyl}glycine] | 25 | – | –
